US20250186423A1, “METHODS OF TREATING CANCER AND OTHER CONDITIONS WITH A MU OPIOID RECEPTOR ANTAGONIST” (priority 2022, published 2025)

How the values were obtained:
[1] = test system: human microvascular endothelial cells; settings: Feng et al. BMC Anesthesiol (2021); cited from earlier work
[2] = test system: Human umbilical vein endothelial cells (HUVEC); assay: HUVEC cell tube formation; type: cell-based; settings: 0-1000 nM, 18 hours, absence of exogenous opioids
Experimental: Two independent model systems were used to explore the role of MOR and endogenous opioids on angiogenesis. Human umbilical vein endothelial cells (HUVEC) in culture initiate angiogenesis through tube formation when cultured on an appropriate extracellular matrix. In a living system, the chicken egg chorioallantoic membrane assay (CAM) allows direct visualization of new blood vessel formation.
Specifically, the HUVEC cell tube formation was assessed in the presence of various doses (0-1000 nM) of three different Mu opioid receptor antagonists (axelopran, naloxegol, and methylnaltrexone (MNTX)). For this testing, the HUVEC cells were exposed to the various MOR antagonist concentrations and incubated under the following conditions: Briefly, 50 μL of Matrigel in 96 well plates was loaded to make one layer of extracellular matrix. The plate was kept for 1 hour at 37° C. HUVEC cells were seeded on top of Matrigel (0.02×10^6 cells/well) and waited for 4 h to form tube formation. […] Once tubes formed, cells were treated with increasing amounts of the test compounds (axelopran, naloxegol, and MNTX) and incubated for 18 hours. Cells were stained with Calcein AM and images were captured. The data analysis was performed using NIH imageJ software. Tube length was measure and data was plotted using prism software.

[3] = test system: MDA-MB-231 tumor cell line; assay: Breast cancer tumor progression in the CAM assay; type: in vivo, chicken; settings: 5 days of growth in the upper CAM; axelopran 1.0 mg/kg, pembrolizumab 2.5 mg/kg, bevacizumab 4 mg/kg
Experimental: The chicken egg chorioallantoic membrane assay (FIG. 3B) allows for the study of tumor progression of injected tumor cells in the presence of active endogenous immune surveillance, but again in the absence of an active gut microbiome.
Breast cancer cell tumor progression was assessed in the chicken egg, chorioallantoic membrane assay. The experimental timing is shown below in FIG. 9. Fertilized chicken eggs were incubated for 9 days. The MDA-MB-231 tumor cell line was cultivated in D-MEM medium supplemented with 10% FBS and 1% penicillin/streptomycin. On day E9, cells were detached with trypsin, washed with complete medium and suspended in graft medium. An inoculum of 1×10^6 cells was added onto the CAM of each egg (E9) and then eggs were randomized into groups. Tumor cells (breast cancer MDA-MB231 cells (10^6)) were then seeded on the upper CAM and further incubated for 3 three days. Test agents were then added to the same site at selected concentrations. Following five days of further incubation the growing tumor was excised, freed of CAM tissue, and weighed.
For this testing, the chicken eggs were treated with: axelopran; pembrolizumab (Pembro); axelopran+pembrolizumab; bevacizumab (Beva); axelopran+bevacizumab; pembrolizumab+bevacizumab; and axelopran+pembrolizumab+bevacizumab. Axelopran was used at dose of 1.0 mg/kg; pembrolizumab was used at a dose of 2.5 mg/kg; and bevacizumab was used at a dose of 4 mg/kg. The results of this testing are shown in FIG. 10A, 10B, 11 and Table 2-2.

M-001 melanoma cells = assay: Melanoma tumor progression in Zebra fish larvae; type: in vivo, zebrafish; settings: Pembro +TILS, no axelopran, 72 hours of growth
Experimental: Zebra fish larvae (FIG. 3A) allow direct visualization of injected tumor cell growth and metastasis (collectively tumor progression) using fluorescently label tumor cells. At this developmental stage both the zebra fish immune system and gut microbiome are immature or lacking. Co-injection of exogenous tumor infiltrating lymphocytes (ex-TILS) allows the separate study of immune surveillance in the absence of a microbiome.
(§1) The toxicity screening period covered the first 72 hours of development. The efficacy evaluation of Axelopran was made using M-001 melanoma cells and matching TILs. Two-day old zebrafish embryos were subcutaneously injected into the perivitelline space with approximately 700 M-001 cells labelled with Dil red fluorescent dye and intravenously injected with TILs with or without pembrolizumab antibody. At the same time, MOR-antagonist test doses were added to the water. Following an additional 72 hours of further development, the fish were assayed for tumor growth (size of original tumor implant) and metastasis disseminated to the distal caudal venous plexus (CVP) three days after implantation.
The testing described above was repeated studying the effects of various doses of axelopran (0, 50 nM, 100 nM, 500 nM, and 1000 nM) alone, pembrolizumab alone, or pembrolizumab in combination with axelopran. The results of this testing are shown in FIG. 7, which depicts a summary of melanoma tumor progression (tumor size×#metastasis) in the presence of increasing axelopran concentrations or the checkpoint inhibitor pembrolizumab. For experiments using pembrolizumab, exogenous tumor-infiltrating lymphocytes (TILs) were also injected. The additional controls included the effect of TILs alone and with axelopran (500 nM) and pembrolizumab and TILs alone and with axelopran (500 nM). *=<0.05, **=<0.005, ***=<0.0005.

Zebra fish larvae = Zebra fish larvae mortality in combination therapy study; type: in vivo, zebrafish; settings: TILs plus pembrolizumab
Experimental: as §1
For study investigating combination therapy, the Zebra fish larvae mortality was also investigated.

Compound | angiogenesis (HUVEC cell tube formation) [2] | Breast cancer tumor progression index (tumor size × metastasis), Mean [3] | further results
C=CCN1CC[C@]23c4c5ccc(O)c4O[C@H]2C(=O)CC[C@@]3(O)[C@H]1C5 [naloxone] | – | – | opioids-induced angiogenesis and angiogenesis by itself [1]: neither antagonizes opioids-induced angiogenesis nor induces angiogenesis by itself
C=CCN1CC[C@]23c4c5ccc(O)c4O[C@H]2[C@@H](OCCOCCOCCOCCOCCOCCOCCOC)CC[C@@]3(O)[C@H]1C5 [naloxegol] | inhibit angiogenesis | – | –
bevacizumab: an anti-VEGF antibody | – | 0.28 fraction of negative control | –
C[N@+]1(CC2CC2)CC[C@]23c4c5ccc(O)c4O[C@H]2C(=O)CC[C@@]3(O)[C@H]1C5 [methylnaltrexone] | inhibit angiogenesis | – | –
pembrolizumab: an anti-PD1 antibody, checkpoint inhibitor | – | 0.54 fraction of negative control | Melanoma tumor progression index (tumor size × metastasis), Mean (M-001 melanoma cells): 4.83; Zebra fish larvae mortality (Zebra fish larvae): 63%
